Source: article PMC7589057, “Synthesis of Hantzsch Adducts as Cholinesterases and Calcium Flux inhibitors, Antioxidants and Neuroprotectives” (International Journal of Molecular Sciences, 2020)
Where “and” joins values, the source holds several entries; their conditions need not be identical. Equal values may be shown once. Read-outs that look alike come from different tables or passages of the source.

Tests used:
SH-SY5Y cells [1] = assay: Neuroprotection against H2O2-induced cell death in SH-SY5Y cells (MTS); type: cell-based; conditions: for H2O2 (%) neuroprotection: H2O2 200 µM
Experimental: (§1) The most balanced compounds were then submitted to evaluation of their neuroprotection activity. For this purpose, cytotoxicity was induced by H2O2, a well-known toxic responsible for the generation of ROS and by mitochondrial respiratory chain blockers oligomycin rotenone (O/R). Prior to the neuroprotective assay, the effect of the compounds on cell viability was evaluated at 1 and 10 µM, showing no cytotoxicity against SH-SY5Y cells.
(§2) SH-SY5Y cells were seeded in 96-well culture plates at a density of 12 × 10^4 cells per well in DMEM/F12 (1:1) medium supplemented with 10% fetal bovine serum, 1X non-essential amino acids, 100 units/mL penicillin and […] streptomycin (Dutscher, France). After 48 h of incubation, the cultures were treated with 100 µl of the test compounds or DMSO (0.1%) in the same medium. After 24 h, the cells were co-incubated with H2O2 (200 µM) or O/R (O at 10 µM/R at 30 µM) with or without the tested compounds at noncytotoxic concentrations for an additional period of 24 h. The percentage of cell viability was measured using CellTiter 96 AQueous Non-Radioactive Cell Proliferation (MTS) Assay (Promega, France).

Ca^+2 channel = assay: Calcium channel blockade (FLIPR Calcium 6, KCl/CaCl2-stimulated SH-SY5Y cells); type: cell-based; conditions: 10 μM; SH-SY5Y cells stimulated with KCl/CaCl2
Experimental: The calcium channel blockade assay was performed as described earlier. Briefly, the SH-SY5Y cells were seeded out in 96-well dark-walled plates at a density of 1 × 10^5 cells per well. After 24 h, the cells were loaded with FLIPR Calcium 6 indicator (Molecular Devices) for 2 h at 37 °C, according to the manufacturer’s protocol. Compounds were dissolved in an appropriate amount of DMSO at 10 mM concentration and diluted to a final concentration of 10 μM in Hanks′ Balanced Salt Solution (HBSS, Thermo Fisher Scientific) buffered with HEPES (Sigma-Aldrich) at pH = 7.4, and as such used were for treatment of indicator loaded cells (10 min at 37 °C). […] The baseline fluorescence was recorded for 5 s. Then, the cells were stimulated with KCl/CaCl2 solution (in HBSS, final concentration of KCl and CaCl2 was 90 and 5 mM, respectively) and the fluorescence was recorded for a further 30 s. Dimethyl sulfoxide 1% solution in HBSS was used as a vehicle control. Nimodipine (Cayman Chemical Company) was used as a reference inhibitor at 10 μM and compounds were assessed at the same final concentration in triplicate in three independent experiments. Fluorescent intensity values were normalized to the baseline.

SH-SY5Y cells [2] = assay: Neuroprotection against oligomycin A/rotenone (O/R)-induced cell death in SH-SY5Y cells (MTS); type: cell-based; conditions: for O/R (%) neuroprotection: O at 10 µM/R at 30 µM
Experimental: as §1, §2

EeAChE = EeAChE (Electrophorus electricus, UniProt O42275); assay: biochemical; type: biochemical
EeAChE, sequence (O42275 24-633): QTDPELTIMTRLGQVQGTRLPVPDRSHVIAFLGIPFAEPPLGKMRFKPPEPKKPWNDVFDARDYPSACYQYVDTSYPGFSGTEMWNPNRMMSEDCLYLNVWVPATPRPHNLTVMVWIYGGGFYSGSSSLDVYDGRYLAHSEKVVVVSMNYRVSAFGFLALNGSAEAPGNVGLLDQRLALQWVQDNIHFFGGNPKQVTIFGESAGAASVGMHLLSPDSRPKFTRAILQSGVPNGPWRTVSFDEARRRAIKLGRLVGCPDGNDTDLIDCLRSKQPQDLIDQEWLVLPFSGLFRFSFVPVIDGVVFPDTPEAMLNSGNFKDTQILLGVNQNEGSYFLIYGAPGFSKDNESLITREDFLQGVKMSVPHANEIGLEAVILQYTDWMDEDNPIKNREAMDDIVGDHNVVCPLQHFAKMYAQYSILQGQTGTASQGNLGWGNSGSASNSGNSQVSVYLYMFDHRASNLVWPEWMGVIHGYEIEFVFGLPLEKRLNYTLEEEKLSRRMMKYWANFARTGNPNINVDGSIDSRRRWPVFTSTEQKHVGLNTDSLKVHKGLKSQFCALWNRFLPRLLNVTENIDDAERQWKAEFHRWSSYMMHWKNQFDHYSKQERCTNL
Experimental: (§3) The evaluation of the activity of compounds against both EeAChE and eqBuChE was evaluated following the Ellman spectrophotometric method. Briefly, the reaction happens in a final volume of 3 mL of a 0.1 M phosphate-buffered solution at pH = 8.0, containing 5,5′-dithiobis-2-nitrobenzoic acid, EeAChE or eqBuChE, tested compound and bovine albumin serum phosphate-buffered (pH = 8) solution After this pre-incubation period, acetylthiocholine iodide or butyrylthiocholine iodide was added, allowing 15 min of additional incubation time.

[3] = Oxygen radical absorbance capacity assay (ORAC-FL); conditions: Trolox equivalents, mean (n = 3) ± SEM
Experimental: Briefly, fluorescein and antioxidant were incubated in a black 96-well microplate (Nunc) for 15 min at 37 °C. 2,2′-Azobis(amidinopropane) dihydrochloride was then added quickly using the built-in injector of Varioskan Flash plate reader (Thermo Scientific). […] All the reactions were made in triplicate and at least three different assays were performed for each sample [9, 30].

eqBuChE = eqBuChE (Equus caballus, UniProt P81908); assay: biochemical; conditions: mean ± SEM, read-out: BuChE IC50
eqBuChE, sequence (P81908 whole entry): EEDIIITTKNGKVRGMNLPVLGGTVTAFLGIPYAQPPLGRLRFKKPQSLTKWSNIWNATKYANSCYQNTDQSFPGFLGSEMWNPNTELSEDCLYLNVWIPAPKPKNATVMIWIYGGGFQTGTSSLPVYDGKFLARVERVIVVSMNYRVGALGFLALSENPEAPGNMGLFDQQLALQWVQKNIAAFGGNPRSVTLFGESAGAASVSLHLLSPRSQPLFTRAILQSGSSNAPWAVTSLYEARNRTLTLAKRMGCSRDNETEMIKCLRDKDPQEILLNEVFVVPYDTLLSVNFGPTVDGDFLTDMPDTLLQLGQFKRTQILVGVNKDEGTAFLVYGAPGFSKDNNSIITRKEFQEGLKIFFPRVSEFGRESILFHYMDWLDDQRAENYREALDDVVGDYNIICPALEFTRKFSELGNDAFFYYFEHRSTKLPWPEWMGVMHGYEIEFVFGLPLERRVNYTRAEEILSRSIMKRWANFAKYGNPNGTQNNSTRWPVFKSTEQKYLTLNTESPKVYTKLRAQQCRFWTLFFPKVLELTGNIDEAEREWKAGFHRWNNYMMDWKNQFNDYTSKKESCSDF
Experimental: as §3

SH-SY5Y cells [4] = test system: SH-SY5Y cells; parameters: method as in PMID 27736061; conditions: 0.1 µM; cited from earlier work
SH-SY5Y cells [5] = test system: SH-SY5Y cells; parameters: method as in PMID 27736061; conditions: 0.1 µM, cited from earlier work

Structure (SMILES): COC(=O)C1=C(C)NC(C)=C(C(=O)OC)C1c1ccc(OCCCCCN2CCC(Cc3ccccc3)CC2)cc1 [3h, Dimethyl-4-(4-((5-(4-benzylpiperidin-1-yl)pentyl)oxy)phenyl)-2,6-dimethyl-1,4-dihydropyridine-3,5-dicarboxylate]
- H2O2 (%) neuroprotection (SH-SY5Y cells [1]; 0.3 µM): 28% and 28.68% and 28.68 ± 0.02 %
- H2O2 (%) neuroprotection (SH-SY5Y cells [1]; 1 µM): 23.32 ± 0.02 %
- (%) Ca Flux Inhibition (Ca^+2 channel): 47.72%
- O/R (%) neuroprotection (SH-SY5Y cells [2]; 0.3 µM): 38.29% and 38.29 ± 0.04 %
- O/R (%) neuroprotection (SH-SY5Y cells [2]; 1 µM): 33.90% and 33.90 ± 0.05 %
- fold less active than tacrine (AChE IC50) (EeAChE; AChE IC50 vs tacrine): 60 fold
- IC50 (EeAChE; EeAChE, mean ± SEM, read-out: AChE IC50): 1800 ± 100 nM
- ORAC [3]: 2.54 TE and 2.54 ± 0.04 TE
- IC50 (eqBuChE): 2000 ± 100 nM

Structure (SMILES): CCOC(=O)C1=C(C)NC(C)=C(C(=O)OCC)C1c1ccc(OCCCCCCN2CCN(C)CC2)cc1 [3m, 3,5-Diethyl-2,6-dimethyl-4-(4-{[6-(4-methylpiperazin-1-yl)hexyl]oxy}phenyl)-1,4-dihydro-pyridine-3,5-dicarboxylate]
- neuroprotective effect against H2O2 (in words) (SH-SY5Y cells [1]): modest
- H2O2 (%) neuroprotection (SH-SY5Y cells [1]; 0.3 µM): 9.55 ± 0.00%
- H2O2 (%) neuroprotection (SH-SY5Y cells [1]; 1 µM): 4.63 ± 0.02%
- (%) Ca Flux Inhibition (Ca^+2 channel): 50.6%
- neuroprotective effect against O/R (in words) (SH-SY5Y cells [2]): modest
- O/R (%) neuroprotection (SH-SY5Y cells [2]; 0.3 µM): 8.95 ± 0.00%
- O/R (%) neuroprotection (SH-SY5Y cells [2]; 1 µM): 16.65 ± 0.00%
- inhibition at 10 µM (EeAChE; read-out: AChE % inhibition at 10 μM (no IC50 given), EeAChE, 10 μM): < 50%
- ORAC [3]: 1.10 ± 0.08 TE
- ORAC ([3]; listed as 2m): 1.10 TE
- IC50 (eqBuChE): 5500 ± 100 nM

Structure (SMILES): COc1ccc2[nH]cc(CCNC(C)=O)c2c1 [MEL, melatonin]
- H2O2 (%) neuroprotection (SH-SY5Y cells [4]): 55.4 ± 7.73 *[10] %
- O/R (%) neuroprotection (SH-SY5Y cells [5]; listed as Melatonin): 66.6 ± 3.01 ***[10] %
- O/R (%) neuroprotection (SH-SY5Y cells [5]; listed as melatonin): 66.6%
